Experimental data: the supplement of paper PMC10307832

How the values were obtained:
Test in all cases: relative viability (nuclei count vs DMSO), 5 days (fraction); higher = more cells survive
NCI-H647 = tested on: NCI-H647
Procedure, shortened: (§1)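 After 5 days of treatment, lung cancer cells in 1536-well plates were fixed and stained in a single step (final 0.05% Triton X-100, 1% formaldehyde, 1 ug/ml Hoechst) and their nuclei counted on 4× images. Treatment had been applied by pin tool the day after seeding as one drug alone or as a fixed anchor-drug dose with five library-drug doses (not always all listed) in √10 steps. Relative viability is the nuclei count of treated wells divided by that of vehicle wells, and values are medians of duplicate plates.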

NCI-H1651 = tested on: NCI-H1651
Procedure, shortened: as §1

UMC-11 = tested on: UMC-11
Procedure, shortened: as §1

NCI-H1650 = tested on: NCI-H1650
Procedure, shortened: as §1

HCC-78 = tested on: HCC-78
Procedure, shortened: as §1

LCLC-103H = tested on: LCLC-103H
Procedure, shortened: as §1

LK-2 = tested on: LK-2
Procedure, shortened: as §1

LCLC-97TM1 = tested on: LCLC-97TM1
Procedure, shortened: as §1

NCI-H1793 = tested on: NCI-H1793
Procedure, shortened: as §1

COR-L23 = tested on: COR-L23
Procedure, shortened: as §1

A-427 = tested on: A-427
Procedure, shortened: as §1

NCI-H522 = tested on: NCI-H522
Procedure, shortened: as §1

PC-3 [JPC-3] = tested on: PC-3 [JPC-3]
Procedure, shortened: as §1

LOU-NH91 = tested on: LOU-NH91
Procedure, shortened: as §1

LXF-289 = tested on: LXF-289
Procedure, shortened: as §1

NCI-H838 = tested on: NCI-H838
Procedure, shortened: as §1

201T = tested on: 201T
Procedure, shortened: as §1

HARA = tested on: HARA
Procedure, shortened: as §1

NCI-H2347 = tested on: NCI-H2347
Procedure, shortened: as §1

NCI-H2405 = tested on: NCI-H2405
Procedure, shortened: as §1

NCI-H23 = tested on: NCI-H23
Procedure, shortened: as §1

NCI-H520 = tested on: NCI-H520
Procedure, shortened: as §1

RERF-LC-KJ = tested on: RERF-LC-KJ
Procedure, shortened: as §1

Cc1cn(-c2cc(NC(=O)c3ccc(C)c(Nc4nccc(-c5cccnc5)n4)c3)cc(C(F)(F)F)c2)cn1 [Nilotinib] + COc1cccc2cc(-c3nc([C@H]4CC[C@H](C(=O)O)CC4)n4ncnc(N)c34)[nH]c12 [OSI-027] (partner 0.5 µM) showed a relative viability (NCI-H647; first compound 0.001 µM) of 0.638, a relative viability (NCI-H647; first compound 0.003162 µM) of 0.749 and a relative viability (NCI-H647; first compound 0.01 µM) of 0.762. The relative viability (NCI-H647; first compound 0.03162 µM) was 0.355, the relative viability (NCI-H647; first compound 0.1 µM) was 0.644 and the relative viability (NCI-H1651; first compound 0.001 µM) was 0.638. For the same molecule, the relative viability (NCI-H1651; first compound 0.003162 µM) was 0.727, the relative viability (NCI-H1651; first compound 0.01 µM) was 0.842 and the relative viability (NCI-H1651; first compound 0.03162 µM) was 0.508. It also gave a relative viability (NCI-H1651; first compound 0.1 µM) of 0.403, a relative viability (UMC-11; first compound 0.001 µM) of 0.482 and a relative viability (UMC-11; first compound 0.003162 µM) of 0.527. It also gave a relative viability (UMC-11; first compound 0.01 µM) of 0.432, a relative viability (UMC-11; first compound 0.1 µM) of 0.246 and a relative viability (NCI-H1650; first compound 0.001 µM) of 0.691. For the same molecule, the relative viability (NCI-H1650; first compound 0.003162 µM) was 0.792, the relative viability (NCI-H1650; first compound 0.01 µM) was 0.569 and the relative viability (NCI-H1650; first compound 0.03162 µM) was 0.464. It also gave a relative viability (NCI-H1650; first compound 0.1 µM) of 0.426, a relative viability (HCC-78; first compound 0.001 µM) of 0.444 and a relative viability (HCC-78; first compound 0.003162 µM) of 0.368. The relative viability (HCC-78; first compound 0.01 µM) was 0.352, the relative viability (HCC-78; first compound 0.03162 µM) was 0.373 and the relative viability (HCC-78; first compound 0.1 µM) was 0.403. It also gave a relative viability (LCLC-103H; first compound 0.001 µM) of 0.406, a relative viability (LCLC-103H; first compound 0.003162 µM) of 0.58 and a relative viability (LCLC-103H; first compound 0.01 µM) of 0.508. It also gave a relative viability (LCLC-103H; first compound 0.03162 µM) of 0.432, a relative viability (LCLC-103H; first compound 0.1 µM) of 0.407 and a relative viability (LK-2; first compound 0.001 µM) of 0.209. It also gave a relative viability (LK-2; first compound 0.003162 µM) of 0.174, a relative viability (LK-2; first compound 0.01 µM) of 0.184 and a relative viability (LK-2; first compound 0.03162 µM) of 0.178. It also gave a relative viability (LK-2; first compound 0.1 µM) of 0.187, a relative viability (LCLC-97TM1; first compound 0.001 µM) of 0.552 and a relative viability (LCLC-97TM1; first compound 0.003162 µM) of 0.559. It also gave a relative viability (LCLC-97TM1; first compound 0.01 µM) of 0.479, a relative viability (LCLC-97TM1; first compound 0.03162 µM) of 0.432 and a relative viability (LCLC-97TM1; first compound 0.1 µM) of 0.467. It also gave a relative viability (NCI-H1793; first compound 0.001 µM) of 0.269, a relative viability (NCI-H1793; first compound 0.003162 µM) of 0.261 and a relative viability (NCI-H1793; first compound 0.01 µM) of 0.223. For the same molecule, the relative viability (NCI-H1793; first compound 0.03162 µM) was 0.188, the relative viability (NCI-H1793; first compound 0.1 µM) was 0.173 and the relative viability (COR-L23; first compound 0.001 µM) was 0.622. It also gave a relative viability (COR-L23; first compound 0.003162 µM) of 0.957, a relative viability (COR-L23; first compound 0.01 µM) of 0.92 and a relative viability (COR-L23; first compound 0.03162 µM) of 0.462. It also gave a relative viability (COR-L23; first compound 0.1 µM) of 0.596, a relative viability (A-427; first compound 0.001 µM) of 0.369 and a relative viability (A-427; first compound 0.003162 µM) of 0.456. The relative viability (A-427; first compound 0.01 µM) was 0.44, the relative viability (A-427; first compound 0.03162 µM) was 0.297 and the relative viability (A-427; first compound 0.1 µM) was 0.154. The relative viability (NCI-H522; first compound 0.001 µM) was 0.67, the relative viability (NCI-H522; first compound 0.003162 µM) was 0.648 and the relative viability (NCI-H522; first compound 0.01 µM) was 0.754. For the same molecule, the relative viability (NCI-H522; first compound 0.03162 µM) was 0.665, the relative viability (NCI-H522; first compound 0.1 µM) was 0.61 and the relative viability (PC-3 [JPC-3]; first compound 0.001 µM) was 0.702. The relative viability (PC-3 [JPC-3]; first compound 0.003162 µM) was 0.838, the relative viability (PC-3 [JPC-3]; first compound 0.01 µM) was 0.785 and the relative viability (PC-3 [JPC-3]; first compound 0.03162 µM) was 0.703. It also gave a relative viability (PC-3 [JPC-3]; first compound 0.1 µM) of 0.475, a relative viability (LOU-NH91; first compound 0.001 µM) of 0.687 and a relative viability (LOU-NH91; first compound 0.003162 µM) of 0.728. The relative viability (LOU-NH91; first compound 0.01 µM) was 0.736, the relative viability (LOU-NH91; first compound 0.03162 µM) was 0.67 and the relative viability (LOU-NH91; first compound 0.1 µM) was 0.727. For the same molecule, the relative viability (LXF-289; first compound 0.001 µM) was 0.807, the relative viability (LXF-289; first compound 0.003162 µM) was 0.965 and the relative viability (LXF-289; first compound 0.01 µM) was 0.94. It also gave a relative viability (LXF-289; first compound 0.03162 µM) of 0.826, a relative viability (LXF-289; first compound 0.1 µM) of 0.532 and a relative viability (NCI-H838; first compound 0.001 µM) of 0.427. It also gave a relative viability (NCI-H838; first compound 0.003162 µM) of 0.381, a relative viability (NCI-H838; first compound 0.01 µM) of 0.377 and a relative viability (NCI-H838; first compound 0.03162 µM) of 0.35. It also gave a relative viability (NCI-H838; first compound 0.1 µM) of 0.429, a relative viability (201T; first compound 0.001 µM) of 0.734 and a relative viability (201T; first compound 0.003162 µM) of 0.666. The relative viability (201T; first compound 0.01 µM) was 0.77, the relative viability (201T; first compound 0.03162 µM) was 0.317 and the relative viability (201T; first compound 0.1 µM) was 0.667. It also gave a relative viability (HARA; first compound 0.001 µM) of 0.523, a relative viability (HARA; first compound 0.003162 µM) of 0.633 and a relative viability (HARA; first compound 0.01 µM) of 0.469. The relative viability (HARA; first compound 0.03162 µM) was 0.179, the relative viability (HARA; first compound 0.1 µM) was 0.231 and the relative viability (NCI-H2347; first compound 0.001 µM) was 0.512. For the same molecule, the relative viability (NCI-H2347; first compound 0.003162 µM) was 0.429, the relative viability (NCI-H2347; first compound 0.01 µM) was 0.388 and the relative viability (NCI-H2347; first compound 0.03162 µM) was 0.364. It also gave a relative viability (NCI-H2347; first compound 0.1 µM) of 0.419, a relative viability (NCI-H2405; first compound 0.001 µM) of 0.594 and a relative viability (NCI-H2405; first compound 0.003162 µM) of 0.617. The relative viability (NCI-H2405; first compound 0.01 µM) was 0.568, the relative viability (NCI-H2405; first compound 0.03162 µM) was 0.609 and the relative viability (NCI-H2405; first compound 0.1 µM) was 0.432. The relative viability (NCI-H23; first compound 0.001 µM) was 0.58, the relative viability (NCI-H23; first compound 0.003162 µM) was 0.418 and the relative viability (NCI-H23; first compound 0.01 µM) was 0.418. The relative viability (NCI-H23; first compound 0.03162 µM) was 0.361, the relative viability (NCI-H23; first compound 0.1 µM) was 0.412 and the relative viability (NCI-H520; first compound 0.001 µM) was 0.269. It also gave a relative viability (NCI-H520; first compound 0.003162 µM) of 0.279, a relative viability (NCI-H520; first compound 0.01 µM) of 0.325 and a relative viability (NCI-H520; first compound 0.03162 µM) of 0.281. It also gave a relative viability (NCI-H520; first compound 0.1 µM) of 0.276, a relative viability (RERF-LC-KJ; first compound 0.001 µM) of 0.501 and a relative viability (RERF-LC-KJ; first compound 0.003162 µM) of 0.586. For the same molecule, the relative viability (RERF-LC-KJ; first compound 0.01 µM) was 0.53, the relative viability (RERF-LC-KJ; first compound 0.03162 µM) was 0.438 and the relative viability (RERF-LC-KJ; first compound 0.1 µM) was 0.374.
